“And” between values parts separate entries of the source, which are not always exact repeats. Equal entries are not always repeated. Where two headings read alike, the source gives them in different places.
Assays:
NCI 60 cancer cell lines = experiment: NCI anticancer screening over a panel of 60 cancer cells, single concentration 10 µM; type: cell-based, human; details: for inhibition at 10 µM: Homo sapiens, read-out: % Growth Inhibition (GI %)
Method in brief: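 Primary single-dose screen at 10 µM over the NCI panel of 60 human tumour cell lines (leukemia, CNS, lung, colon, kidney, ovary, breast, prostate). The standard NCI Developmental Therapeutics Program protocol was used.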

[1] = test system: breast cancer (T47D) cell line; experiment: MTT antiproliferative assay, T-47D
Protocol: The median inhibitory concentration (IC50) and GI50 (average IC50) against the three cancer cell lines were calculated. See Appendix B.
Cells were cultured using DMEM (Invitrogen/Life Technologies) supplemented with 10% FBS (Hyclone,), 10 ug/ml of insulin (Sigma), and 1% penicillin-streptomycin. Plate cells (cells density 1.2 – 1.8 × 10,000 cells/well) in a volume of 100µl complete growth medium + 100 ul of the tested compound per well in a 96-well plate for 24 hours before the MTT assay. In atypical experiment, one hundred micro liters of serial 10-fold diluted sterile tested compounds were added to final concentrations of […] using culture media as negative control. After 24 h of culture incubation and supernatants discarded. HOP-92 lung, MOLT-4 leukemia, and T-47D breast cell lines were trypsinized and washed with Ca2/Mg2 free PBS (pH 7.2). we removed cultures from incubator into laminar flow hood or other sterile work area. […] Each test should include a blank containing complete medium without cells. […] Add reconstituted MTT in an amount equal to 10% of the culture medium volume. Return cultures to incubator for 2-4 hours depending on cell type and maximum cell density. […] Spectrophotometrically absorbance was measured at a wavelength of 570 nm. Measure the background absorbance of multiwell plates at 690 nm and subtract from the […] measurement. Results from all experiments were recorded and the percentage of viable cells was calculated.

[2] = test system: leukemia (MOLT-4) cell line; experiment: MTT antiproliferative assay, MOLT-4; type: cell-based, human; details: for IC50: read-out: Antiproliferative activity IC50 ± SEM, MOLT-4
Protocol: After 24 h of culture incubation and supernatants discarded.

EGFR = molecular target: T1, EGFR (Homo sapiens, UniProt P00533); experiment: EGFR inhibitory assay; type: biochemical; details: for %inh: EGFR, unit not given
T1 construct: EGFR cytoplasmic domain (EGFR-CD, amino acids 645–1186); His6 (N); made in house; host or cells: Sf-9 insect cells (baculovirus)
T1 sequence (P00533 669-1210): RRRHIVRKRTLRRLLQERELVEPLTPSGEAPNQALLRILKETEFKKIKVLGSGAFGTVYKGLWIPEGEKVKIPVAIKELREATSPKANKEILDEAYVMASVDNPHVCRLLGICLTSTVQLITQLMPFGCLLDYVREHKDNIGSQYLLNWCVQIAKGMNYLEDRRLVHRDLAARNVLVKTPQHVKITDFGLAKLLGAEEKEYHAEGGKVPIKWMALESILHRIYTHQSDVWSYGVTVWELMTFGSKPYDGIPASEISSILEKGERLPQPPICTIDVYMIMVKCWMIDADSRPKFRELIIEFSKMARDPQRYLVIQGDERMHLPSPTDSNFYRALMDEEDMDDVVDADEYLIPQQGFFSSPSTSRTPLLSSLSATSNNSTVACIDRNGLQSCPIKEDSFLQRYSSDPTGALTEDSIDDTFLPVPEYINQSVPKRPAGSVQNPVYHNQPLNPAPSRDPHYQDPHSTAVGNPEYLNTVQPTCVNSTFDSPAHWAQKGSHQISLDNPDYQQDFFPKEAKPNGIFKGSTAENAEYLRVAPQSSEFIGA

BRAF^V600E = BRAF^V600E (Homo sapiens, UniProt P15056, V600E); experiment: BRAF^V600E inhibitory assay (B-Raf (V600E) Kinase Assay); type: biochemical; details: read-out: BRAF^V600E inhibition IC50 ± SEM
BRAF^V600E, sequence (P15056 whole entry V600E): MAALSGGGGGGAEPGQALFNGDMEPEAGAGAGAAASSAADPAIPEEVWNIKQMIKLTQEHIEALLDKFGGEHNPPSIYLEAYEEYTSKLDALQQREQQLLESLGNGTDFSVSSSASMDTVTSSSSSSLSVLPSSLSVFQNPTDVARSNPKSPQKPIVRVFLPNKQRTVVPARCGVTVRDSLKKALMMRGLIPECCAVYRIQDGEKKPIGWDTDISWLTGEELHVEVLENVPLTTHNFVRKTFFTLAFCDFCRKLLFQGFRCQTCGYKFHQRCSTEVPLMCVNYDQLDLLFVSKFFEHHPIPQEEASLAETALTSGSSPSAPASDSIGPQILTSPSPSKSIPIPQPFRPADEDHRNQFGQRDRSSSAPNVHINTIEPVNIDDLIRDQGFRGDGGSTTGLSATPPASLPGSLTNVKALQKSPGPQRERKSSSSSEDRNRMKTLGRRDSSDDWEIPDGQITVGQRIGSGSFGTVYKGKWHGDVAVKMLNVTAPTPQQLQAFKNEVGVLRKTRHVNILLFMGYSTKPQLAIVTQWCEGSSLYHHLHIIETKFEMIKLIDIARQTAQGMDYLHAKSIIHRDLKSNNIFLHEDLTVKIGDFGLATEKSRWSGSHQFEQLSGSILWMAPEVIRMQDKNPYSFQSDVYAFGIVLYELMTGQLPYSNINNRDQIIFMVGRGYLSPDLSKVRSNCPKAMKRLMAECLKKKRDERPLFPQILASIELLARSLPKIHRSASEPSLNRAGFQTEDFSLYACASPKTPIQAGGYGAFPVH

[3] = MTT cytotoxicity on normal cell line WI-38; details: human, WI-38 normal cells, % viability
normal cell line WI-38 = experiment: MTT cytotoxicity on normal cell line WI-38

SMILES: C/C(=N\Nc1ccc(S(N)(=O)=O)cc1)c1cnn(-c2cc(=O)[nH]c3ccc(Br)cc23)c1C [Compound 4e, (E)-4-(2-(1-(1-(6-bromo-2-oxo-1,2-dihydroquinolin-4-yl)-5-methyl-1H-pyrazol-4-yl)ethylidene)hydrazineyl)benzenesulfonamide]
- activity in NCI screening (mean GI%) (NCI 60 cancer cell lines; 10 µM, over the NCI cancer cell lines): remarkable activity over the most NCI cancer cell lines
- inhibition at 10 µM (NCI 60 cancer cell lines; 786-0, Renal cancer 786-0, 10 μM): 14.1%
- inhibition at 10 µM (NCI 60 cancer cell lines; A498, Renal cancer A498, 10 μM): < 5%
- inhibition at 10 µM (NCI 60 cancer cell lines; A549, Non-small cell lung cancer A549/ATCC, 10 μM): < 5%
- inhibition at 10 µM (NCI 60 cancer cell lines; ACHN, Renal cancer ACHN, 10 μM): 19%
- inhibition at 10 µM (NCI 60 cancer cell lines; BT-549, Breast cancer BT-549, 10 μM): 62.3%
- inhibition at 10 µM (NCI 60 cancer cell lines; CAKI-1, Renal cancer CAKI-1, 10 μM): 23.3%
- inhibition at 10 µM (NCI 60 cancer cell lines; CCRF-CEM, Leukemia CCRF-CEM, 10 μM): 91.8%
- inhibition at 10 µM (NCI 60 cancer cell lines; COLO 205, Colon cancer COLO 205, 10 μM): 14.5%
- inhibition at 10 µM (NCI 60 cancer cell lines; DU-145, Prostate cancer DU-145, 10 μM): 22.1%
- inhibition at 10 µM (NCI 60 cancer cell lines; EKVX, Non-small cell lung cancer EKVX, 10 μM): 27.9%
- inhibition at 10 µM (NCI 60 cancer cell lines; HCC 2998, Colon cancer HCC-2998, 10 μM): 26.6%
- inhibition at 10 µM (NCI 60 cancer cell lines; HCT-15, Colon cancer HCT-15, 10 μM): 8.8%
- inhibition at 10 µM (NCI 60 cancer cell lines; HCT-116, Colon cancer HCT-116, 10 μM): 41.5%
- inhibition at 10 µM (NCI 60 cancer cell lines; HL-60, Leukemia HL-60(TB), 10 μM): 15.2%
- inhibition at 10 µM (NCI 60 cancer cell lines; HOP-62, Non-small cell lung cancer HOP-62, 10 μM): 36.6%
- inhibition at 10 µM (NCI 60 cancer cell lines; HOP-92, Non-small cell lung cancer HOP-92, 10 μM): 102%
- inhibition at 10 µM (NCI 60 cancer cell lines; HT-29, Colon cancer HT29, 10 μM): < 5%
- inhibition at 10 µM (NCI 60 cancer cell lines; Hs-578T, Breast cancer HS 578T, 10 μM): 71.6%
- inhibition at 10 µM (NCI 60 cancer cell lines; IGROV-1, Ovarian cancer IGROV1, 10 μM): 43%
- inhibition at 10 µM (NCI 60 cancer cell lines; K562, Leukemia K-562, 10 μM): 65%
- inhibition at 10 µM (NCI 60 cancer cell lines; KM12, Colon cancer KM12, 10 μM): 46.3%
- inhibition at 10 µM (NCI 60 cancer cell lines; LOX IMVI, Melanoma LOX IMVI, 10 μM): 61.8%
- inhibition at 10 µM (NCI 60 cancer cell lines; Leukemia SR, 10 μM): 95.9%
- inhibition at 10 µM (NCI 60 cancer cell lines; MCF7, Breast cancer MCF7, 10 μM): 76.8%
- inhibition at 10 µM (NCI 60 cancer cell lines; MDA-MB-231, Breast cancer MDA-MB-231/ATCC, 10 μM): 68.5%
- inhibition at 10 µM (NCI 60 cancer cell lines; MDA-MB-435, Melanoma MDA-MB-435, 10 μM): 95.6%
- inhibition at 10 µM (NCI 60 cancer cell lines; MDA-MB-468, Breast cancer MDA-MB-468, 10 μM): 111%
- inhibition at 10 µM (NCI 60 cancer cell lines; MOLT-4, Leukemia MOLT-4, 10 μM): 81.5%
- inhibition at 10 µM (NCI 60 cancer cell lines; Melanoma M14, 10 μM): 26.9%
- inhibition at 10 µM (NCI 60 cancer cell lines; Melanoma MALM-3M, 10 μM): 78.3%
- inhibition at 10 µM (NCI 60 cancer cell lines; NCI-H23, Non-small cell lung cancer NCI-H23, 10 μM): 30.1%
- inhibition at 10 µM (NCI 60 cancer cell lines; NCI-H226, Non-small cell lung cancer NCI-H226, 10 μM): 37.7%
- inhibition at 10 µM (NCI 60 cancer cell lines; NCI-H322M, Non-small cell lung cancer NCI-H322M, 10 μM): 22.3%
- inhibition at 10 µM (NCI 60 cancer cell lines; NCI-H460, Non-small cell lung cancer NCI-H460, 10 μM): 22.1%
- inhibition at 10 µM (NCI 60 cancer cell lines; NCI-H522, Non-small cell lung cancer NCI-H522, 10 μM): 94.9%
- inhibition at 10 µM (NCI 60 cancer cell lines; NCI/ADR-RES, Ovarian cancer NCI/ADR-RES, 10 μM): 9.87%
- inhibition at 10 µM (NCI 60 cancer cell lines; OVCAR-3, Ovarian cancer OVCAR-3, 10 μM): 43.8%
- inhibition at 10 µM (NCI 60 cancer cell lines; OVCAR-4, Ovarian cancer OVCAR-4, 10 μM): 32.3%
- inhibition at 10 µM (NCI 60 cancer cell lines; OVCAR-5, Ovarian cancer OVCAR-5, 10 μM): 18.6%
- inhibition at 10 µM (NCI 60 cancer cell lines; OVCAR-8, Ovarian cancer OVCAR-8, 10 μM): 19.5%
- inhibition at 10 µM (NCI 60 cancer cell lines; Prostate cancer PC-3, 10 μM): 41.6%
- inhibition at 10 µM (NCI 60 cancer cell lines; RPMI-8226, Leukemia RPMI-8226, 10 μM): 25.7%
- inhibition at 10 µM (NCI 60 cancer cell lines; RXF 393, Renal cancer RXF 393, 10 μM): 31.4%
- inhibition at 10 µM (NCI 60 cancer cell lines; SF-268, CNS Cancer SF-268, 10 μM): 42.7%
- inhibition at 10 µM (NCI 60 cancer cell lines; SF-295, CNS Cancer SF-295, 10 μM): 8.09%
- inhibition at 10 µM (NCI 60 cancer cell lines; SF-539, CNS Cancer SF-539, 10 μM): 58.4%
- inhibition at 10 µM (NCI 60 cancer cell lines; SK-MEL-2, Melanoma SK-MEL-2, 10 μM): 80%
- inhibition at 10 µM (NCI 60 cancer cell lines; SK-MEL-5, Melanoma SK-MEL-5, 10 μM): 45%
- inhibition at 10 µM (NCI 60 cancer cell lines; SK-MEL-28, Melanoma SK-MEL-28, 10 μM): 65.3%
- inhibition at 10 µM (NCI 60 cancer cell lines; SK-OV-3, Ovarian cancer SK-OV-3, 10 μM): 30.8%
- inhibition at 10 µM (NCI 60 cancer cell lines; SN12C, Renal cancer SN12C, 10 μM): 38.8%
- inhibition at 10 µM (NCI 60 cancer cell lines; SNB-19, CNS Cancer SNB-19, 10 μM): 54%
- inhibition at 10 µM (NCI 60 cancer cell lines; SNB-75, CNS Cancer SNB-75, 10 μM): 78%
- inhibition at 10 µM (NCI 60 cancer cell lines; SW-620, Colon cancer SW-620, 10 μM): 24.3%
- inhibition at 10 µM (NCI 60 cancer cell lines; T47D, Breast cancer T-47D, 10 μM): 82.5%
- inhibition at 10 µM (NCI 60 cancer cell lines; TK-10, Renal cancer TK-10, 10 μM): < 5%
- inhibition at 10 µM (NCI 60 cancer cell lines; U-251, CNS Cancer U251, 10 μM): 62.1%
- inhibition at 10 µM (NCI 60 cancer cell lines; UACC-62, Melanoma UACC-62, 10 μM): 88.6%
- inhibition at 10 µM (NCI 60 cancer cell lines; UACC-257, Melanoma UACC-257, 10 μM): 33.7%
- inhibition at 10 µM (NCI 60 cancer cell lines; UO-31, Renal cancer UO-31, 10 μM): 45.2%
- viability at 0.4 µM ([1]; Homo sapiens, T47D, 0.4uM (log -0.41)): 74%
- viability at 6.3 µM ([1]; Homo sapiens, T47D, 6.3uM (log 0.796)): 52.1%
- viability at 25 µM ([1]; Homo sapiens, T47D, 25uM (log 1.398)): 42.1%
- viability at 100 µM ([1]; Homo sapiens, T47D, 100uM (log 2), MTT absorbance 450 nm): 32.1%
- IC50 ([1]; Homo sapiens, T47D, read-out: Antiproliferative activity IC50 ± SEM, T-47D, MTT): 8.02 ± 0.31 µM
- % viability ([1]; T47D, 1.6ug (log 0.193)): 61.86%
- % viability ([1]; T47D, 25uM (log 1.398), listed as Ws5, 25 µM): 42.072%
- IC50 ([1]; read-out: Antiproliferative activity IC50 ± SEM, T-47D, MTT): 8.62 ± 0.34 µM
- IC50 ([2]; Homo sapiens, MOLT-4, MTT): 8.62 ± 0.34 µM
- % viability ([2]; MOLT-4, 0.4ug (log conc. -0.41)): 65.87%
- % viability ([2]; MOLT-4, 1.6ug (log conc. 0.193), listed as Ws5): 58.42% and 58.419%
- % viability ([2]; MOLT-4, 6.3ug (log conc. 0.796), listed as Ws5): 52.84% and 52.844%
- % viability ([2]; MOLT-4, 25ug (log conc. 1.398), listed as Ws5): 44.14% and 44.141%
- % viability ([2]; MOLT-4, 100ug (log conc. 2)): 35.495%
- IC50 ([2]; MTT): 8.02 ± 0.31 µM
- %inh (EGFR; conc 0.01 (log -2)): 37%
- %inh (EGFR; conc 0.1 (log -1)): 50.6%
- %inh (EGFR; conc 1 (log 0)): 75.8%
- %inh (EGFR; conc 10 (log 1)): 88.1%
- %inh (EGFR; conc 100 (log 2)): 94.2%
- IC50 (EGFR; read-out: EGFR inhibition IC50 ± SEM): 0.055 ± 0.002 µM
- IC50 (BRAF^V600E): 0.068 ± 0.003 µM
- viability at 24 h, 0.4 µM ([3]; WI38, 0.4uM (log conc. -0.41)): 83.2%
- viability at 24 h, 1.6 µM ([3]; WI38, 1.6uM (log conc. 0.19)): 70.8%
- viability at 24 h, 6.3 µM ([3]; WI38, 6.3uM (log conc. 0.8)): 61%
- viability at 24 h, 25 µM ([3]; WI38, 25uM (log conc. 1.4)): 50.4%
- viability at 24 h, 100 µM ([3]; WI38, 100uM (log conc. 2)): 42.1%
- IC50 (normal cell line WI-38; Homo sapiens, read-out: Antiproliferative activity IC50 ± SEM): 29.6 ± 1.18 µM
- % viability (normal cell line WI-38; WI38, 0.4uM (log conc. -0.41), listed as Ws5, 0.4 µM): 83.1677%
- % viability (normal cell line WI-38; WI38, 1.6uM (log conc. 0.19), listed as Ws5, 1.6 µM): 70.8075%
- % viability (normal cell line WI-38; WI38, 6.3uM (log conc. 0.8), listed as Ws5, 6.3 µM): 60.9938%
- % viability (normal cell line WI-38; WI38, 100uM (log conc. 2), listed as Ws5, 100 µM): 42.1118%

From PMC12638379, “An innovative approach to development of new pyrazolylquinolin-2-one hybrids as dual EGFR and BRAF^V600E inhibitors” (Molecular Diversity, 2025)
